The assay has as its target glutamate-activated channels of the GRIN1/2A subtype stably transfected in HEK 293 cells (Homo sapiens (Human), UniProt Q05586+Q12879). The assay is described as follows: Automated patch-clamp system (QPatch HTX), percent potentiation at 1 μM. It is filed as cell-based. To be noted: HEK293, 1 μM test compound, 300 μM NMDA with 8 μM glycine, HEK 293 GRIN1/2A, read-out: GluN2A PCA % potentiation at 1 μM. As for the experimental part: NMDA potentiation in mammalian cells which expressed NMDA receptors was assessed using the automatic patch-clamp system can be used determine the NAM activity of compounds as described below. An whole cell patch-clamp system can be used determine the PAM activity of compounds as described below.
Automated Patch-Clamp System (OPatch HTX):
In this study, HEK 293 cells stably transfected with glutamate-activated channels of the GRIN1/2A subtype will be used together with submaximal NMDA concentrations (300 μM NMDA, co-application with 8 μM Glycine) to investigate the negative allosteric modulation of the test compounds.
In general, cells will be passaged at a confluence of about 80% to […]. For electrophysiological measurements cells will be harvested at a confluence of about 80% to 90% from sterile culture flasks containing culture complete medium. Cells will be transferred as suspension in PBS to the QPatch 16X or QPatch HTX system to the centrifuge/washer directly.
Standard Laboratory Conditions: Cells will be incubated at 37° C. in a humidified atmosphere with 5% CO2 (rel. humidity about 95%).
Culture media: The cells will be continuously maintained in and passaged in sterile culture flasks containing a 1:1 mixture of Dulbecco's modified eagle medium and nutrient mixture F-12 (D-MEM/F-12 1×, liquid, with L-Glutamine) supplemented with 10% fetal bovine serum, 1% Penicillin/Streptomycin solution, and 50 μM AP-5 blocker.
Antibiotics: The complete medium as indicated above is supplemented with 100 μg/mL hygromycin, 15 μg/mL blasticidin and 1 μg/mL puromycin.
Induction of Expression: 2.5 μg/mL tetracycline is added 24 h before start of experiments.
Dose levels are in terms of test compounds, as supplied. Vehicle will be added to achieve a stock concentration of 10 mM (storage at −10° C. to −30° C.). A further stock solutions of 1.0 mM will be prepared in DMSO. Details of stock solution usage (thawing, dose formulations) will be documented in the raw data. The time period of stock solution usage will be detailed in the report.
Test Compound Concentrations
One test concentration of 1.0 μM will be tested.
All test solutions will be prepared by diluting the stock solutions with either Mg-free bath solution only or Mg-free bath solution containing NMDA (300 μM) and glycine (8.0 μM) shortly prior to the electrophysiological experiments and kept at room temperature (19° C. to 30° C.) when in use. 0.1% DMSO will be used as vehicle.
Frequency of preparation: For each test concentration, fresh solutions of test compounds will be prepared every day.
Stability of dose formulation: All preparation times will be documented in the raw data. Any observations regarding instability of test compounds will be mentioned in the raw data.
Storage of dose formulation: On the day of experimentation dose formulations will be maintained at room temperature (19° C. to 30° C.) when in use.
For preparing the experiments and for formation of the giga-ohm-seal, the following standard bath solution will be used:
Sodium Chloride: 137 mM; Potassium Chloride: 4 mM; Calcium Chloride: 1.8 mM; Magnesium Chloride: 1 mM; HEPES: 10 mM; D-Glucose: 10 mM; Cremophor: 0.02%; pH (NaOH): 7.4
The 1× bath solution will be prepared by diluting 10× bath solution without Glucose and 100× Glucose solution with water at least every 7 days. Both stock solutions have been prepared prior to the experimental start of the present study and stored at 1° C. to 9° C. (10× bath solution) or −10° C. to −30° (100× Glucose solution). The batch number(s) of the bath solution(s) used in the experiments will be documented in the raw data. When in use, the 1× bath solution will be kept at room temperature (19° C. to 30° C.). When not in use, the 1× bath solution will be stored at 1° C. to 9° C.
After the giga-seal was formed the following Mg-free bath solution will be used:
Sodium Chloride: 137 mM; Potassium Chloride: 4 mM; Calcium Chloride; 2.8 mM; HEPES: 10 mM; D-Glucose: 10 mM; Cremophor: 0.02%; pH (NaOH): 7.4 […]

Sequence of glutamate-activated channels of the GRIN1/2A subtype stably transfected in HEK 293 cells (Q12879 whole entry, looked up, other chains not shown): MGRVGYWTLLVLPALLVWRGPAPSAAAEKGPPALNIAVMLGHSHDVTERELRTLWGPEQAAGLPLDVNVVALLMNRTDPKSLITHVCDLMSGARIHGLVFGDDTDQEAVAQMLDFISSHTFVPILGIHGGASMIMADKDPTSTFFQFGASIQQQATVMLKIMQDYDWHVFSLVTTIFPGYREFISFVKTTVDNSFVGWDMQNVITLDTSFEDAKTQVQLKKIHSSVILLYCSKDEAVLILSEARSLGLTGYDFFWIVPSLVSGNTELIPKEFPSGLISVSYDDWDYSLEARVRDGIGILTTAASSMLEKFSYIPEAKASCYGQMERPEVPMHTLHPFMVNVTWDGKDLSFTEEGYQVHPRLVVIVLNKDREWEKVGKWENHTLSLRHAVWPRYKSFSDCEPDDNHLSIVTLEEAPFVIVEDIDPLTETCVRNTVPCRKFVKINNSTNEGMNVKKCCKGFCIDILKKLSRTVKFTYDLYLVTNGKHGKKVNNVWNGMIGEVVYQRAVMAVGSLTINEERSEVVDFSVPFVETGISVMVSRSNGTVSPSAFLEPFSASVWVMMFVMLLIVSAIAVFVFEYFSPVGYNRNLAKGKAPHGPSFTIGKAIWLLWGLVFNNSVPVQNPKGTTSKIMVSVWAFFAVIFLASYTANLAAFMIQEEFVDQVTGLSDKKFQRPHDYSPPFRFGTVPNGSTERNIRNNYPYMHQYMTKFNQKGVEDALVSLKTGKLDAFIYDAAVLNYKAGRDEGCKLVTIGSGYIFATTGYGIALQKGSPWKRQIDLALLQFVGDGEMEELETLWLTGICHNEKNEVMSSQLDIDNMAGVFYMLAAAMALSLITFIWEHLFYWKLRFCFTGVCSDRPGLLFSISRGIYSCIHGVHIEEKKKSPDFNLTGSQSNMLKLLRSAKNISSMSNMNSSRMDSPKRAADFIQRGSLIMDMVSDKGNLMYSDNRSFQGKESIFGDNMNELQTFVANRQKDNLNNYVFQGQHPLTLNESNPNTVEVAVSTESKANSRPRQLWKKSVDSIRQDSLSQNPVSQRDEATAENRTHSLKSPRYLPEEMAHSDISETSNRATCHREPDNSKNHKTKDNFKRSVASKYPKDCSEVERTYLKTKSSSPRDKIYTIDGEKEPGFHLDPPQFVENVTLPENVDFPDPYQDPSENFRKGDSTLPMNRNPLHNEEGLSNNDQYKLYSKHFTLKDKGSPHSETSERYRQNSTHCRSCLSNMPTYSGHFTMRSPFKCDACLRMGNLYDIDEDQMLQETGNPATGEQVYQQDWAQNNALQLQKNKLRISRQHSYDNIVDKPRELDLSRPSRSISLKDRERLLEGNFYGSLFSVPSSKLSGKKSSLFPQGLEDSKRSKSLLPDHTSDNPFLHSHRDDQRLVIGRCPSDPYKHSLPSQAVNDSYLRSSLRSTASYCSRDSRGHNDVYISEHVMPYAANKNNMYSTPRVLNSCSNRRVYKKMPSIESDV

Turning to `C[C@@H]([C@H]1CC[C@H]2[C@@H]3CC=C4C[C@](O)(C(F)(F)F)CC[C@]4(C)[C@H]3CC[C@]12C)[C@H](O)C(F)(F)F` [Compound 1, (3S,8S,9S,10R,13S,14S,17R)-10,13-dimethyl-17-((2S,3S)-4,4,4-trifluoro-3-hydroxybutan-2-yl)-3-(trifluoromethyl)-2,3,4,7,8,9,10,11,12,13,14,15,16,17-tetradecahydro-1H-cyclopenta[a]phenanthren-3-ol], the activation at 1 µM was -40 to -10%.

As for `CC[C@]1(O)CC[C@@]2(C)[C@@H](CC[C@@H]3[C@@H]2CC[C@]2(C)[C@@H]([C@H](C)[C@@H](O)C(C)C)CC[C@@H]32)C1` [Compound 65, (3S,5S,8R,9S,10S,13S,14S,17R)-3-ethyl-17-((2S,3S)-3-hydroxy-4-methylpentan-2-yl)-10,13-dimethylhexadecahydro-1H-cyclopenta[a]phenanthren-3-ol], the activation at 1 µM was -40 to -10%.

On to `CC[C@]1(O)CC[C@@]2(C)[C@@H](CC[C@@H]3[C@@H]2CC[C@]2(C)[C@@H]([C@H](C)[C@H](O)C4CC4)CC[C@@H]32)C1` [Compound 90, (3S,5S,8R,9S,10S,13S,14S,17R)-17-((1R,2S)-1-cyclopropyl-1-hydroxypropan-2-yl)-3-ethyl-10,13-dimethylhexadecahydro-1H-cyclopenta[a]phenanthren-3-ol], for which the activation at 1 µM is -10 to 10%.

`CC[C@]1(O)CC[C@@]2(C)[C@@H](CC[C@@H]3[C@@H]2CC[C@]2(C)[C@@H]([C@H](C)[C@@H](O)c4ccccc4)CC[C@@H]32)C1` [Compound 55, (3S,5S,8R,9S,10S,13S,14S,17R)-3-ethyl-17-((1R,2S)-1-hydroxy-1-phenylpropan-2-yl)-10,13-dimethylhexadecahydro-1H-cyclopenta[a]phenanthren-3-ol]: the activation at 1 µM was -40 to -10%.

With `CC#CC[C@H](O)[C@@H](C)[C@H]1CC[C@H]2[C@@H]3CC[C@H]4C[C@](O)(CC)CC[C@]4(C)[C@H]3CC[C@]12C` [Compound 41, (3S,5S,8R,9S,10S,13S,14S,17R)-3-ethyl-17-((2S,3S)-3-hydroxyhept-5-yn-2-yl)-10,13-dimethylhexadecahydro-1H-cyclopenta[a]phenanthren-3-ol], the activation at 1 µM is -40 to -10%.

Regarding `CC(C)CC[C@@H](O)[C@@H](C)[C@H]1CC[C@H]2[C@@H]3CC=C4C[C@@](C)(O)CC[C@@H]4[C@H]3CC[C@]12C` [Compound 83, (3S,8R,9S,10R,13S,14S,17R)-17-((2S,3R)-3-hydroxy-6-methylheptan-2-yl)-3,13-dimethyl-2,3,4,7,8,9,10,11,12,13,14,15,16,17-tetradecahydro-1H-cyclopenta[a]phenanthren-3-ol], the activation at 1 µM is -40 to -10%.

As to `CC[C@]1(O)CC[C@@]2(C)[C@H](CC[C@@H]3[C@@H]2CC[C@]2(C)[C@@H]([C@H](C)[C@@H](O)C(F)(F)F)CC[C@@H]32)C1` [Compound 43, (3S,5R,8R,9S,10S,13S,14S,17R)-3-ethyl-10,13-dimethyl-17-((2S,3R)-4,4,4-trifluoro-3-hydroxybutan-2-yl)hexadecahydro-1H-cyclopenta[a]phenanthren-3-ol], the activation at 1 µM is less than -40%.

For `COC[C@]1(O)CC[C@@]2(C)[C@H](CC[C@@H]3[C@@H]2CC[C@]2(C)[C@@H]([C@H](C)[C@H](O)C(F)(F)F)CC[C@@H]32)C1` [Compound 71, (3S,5R,8R,9S,10S,13S,14S,17R)-3-(methoxymethyl)-10,13-dimethyl-17-((2S,3S)-4,4,4-trifluoro-3-hydroxybutan-2-yl)hexadecahydro-1H-cyclopenta[a]phenanthren-3-ol], the activation at 1 µM is -40 to -10%.

For the molecule `CC[C@]1(O)CC[C@@]2(C)[C@H](CC[C@@H]3[C@@H]2CC[C@]2(C)[C@@H]([C@H](C)[C@H](O)C(F)(F)F)CC[C@@H]32)C1` [Compound 56, (3S,5R,8R,9S,10S,13S,14S,17R)-3-ethyl-10,13-dimethyl-17-((2S,3S)-4,4,4-trifluoro-3-hydroxybutan-2-yl)hexadecahydro-1H-cyclopenta[a]phenanthren-3-ol], the activation at 1 µM was less than -40%.

In the case of `C[C@H]([C@@H](O)C(F)(F)F)[C@H]1CC[C@H]2[C@@H]3CC[C@@H]4C[C@@](C)(O)CC[C@]4(C)[C@H]3CC[C@]12C` [Compound 57, (3S,5R,8R,9S,10S,13S,14S,17R)-3,10,13-trimethyl-17-((2S,3R)-4,4,4-trifluoro-3-hydroxybutan-2-yl)hexadecahydro-1H-cyclopenta[a]phenanthren-3-ol], the activation at 1 µM is less than -40%.

Consider `CC[C@]1(O)CC[C@@]2(C)C(=CC[C@H]3[C@@H]4CC[C@H]([C@H](C)[C@@H](O)C(F)(F)F)[C@@]4(C)CC[C@@H]32)C1` [Compound 62, (3S,8S,9S,10R,13S,14S,17R)-3-ethyl-10,13-dimethyl-17-((2S,3R)-4,4,4-trifluoro-3-hydroxybutan-2-yl)-2,3,4,7,8,9,10,11,12,13,14,15,16,17-tetradecahydro-1H-cyclopenta[a]phenanthren-3-ol], for which the activation at 1 µM is -40 to -10%.

As to `CC[C@]1(O)CC[C@@]2(C)[C@@H](CC[C@@H]3[C@@H]2CC[C@]2(C)[C@@H]([C@H](C)[C@H](O)CC4CCOCC4)CC[C@@H]32)C1` [Compound 18, (3S,5S,8R,9S,10S,13S,14S,17R)-3-ethyl-17-((2S,3R)-3-hydroxy-4-(tetrahydro-2H-pyran-4-yl)butan-2-yl)-10,13-dimethylhexadecahydro-1H-cyclopenta[a]phenanthren-3-ol], the activation at 1 µM was -10 to 10%.

As to `CC(C)CC[C@H](O)[C@@H](C)[C@H]1CC[C@H]2[C@@H]3CC[C@H]4C[C@@](C)(O)CC[C@@H]4[C@H]3CC[C@]12C` [Compound 74, (3S,5S,8R,9R,10S,13S,14S,17R)-17-((2S,3S)-3-hydroxy-6-methylheptan-2-yl)-3,13-dimethylhexadecahydro-1H-cyclopenta[a]phenanthren-3-ol], the activation at 1 µM is -40 to -10%.

Turning to `CC[C@]1(O)CC[C@@]2(C)[C@@H](CC[C@@H]3[C@@H]2CC[C@]2(C)[C@@H]([C@H](C)[C@@H](O)c4cccnc4)CC[C@@H]32)C1` [Compound 7, (3S,5S,8R,9S,10S,13S,14S,17R)-3-ethyl-17-((1R,2S)-1-hydroxy-1-(pyridin-3-yl)propan-2-yl)-10,13-dimethylhexadecahydro-1H-cyclopenta[a]phenanthren-3-ol], the activation at 1 µM is -10 to 10%.

On to `COC[C@]1(O)CC[C@H]2[C@H](CC[C@@H]3[C@@H]2CC[C@]2(C)[C@@H]([C@H](C)[C@H](O)C(F)(F)F)CC[C@@H]32)C1` [Compound 48, (3S,5R,8R,9R,10S,13S,14S,17R)-3-(methoxymethyl)-13-methyl-17-((2S,3S)-4,4,4-trifluoro-3-hydroxybutan-2-yl)hexadecahydro-1H-cyclopenta[a]phenanthren-3-ol], for which the activation at 1 µM was -40 to -10%.

For `C[C@@H]([C@H]1CC[C@H]2[C@@H]3CC[C@@H]4C[C@@](C)(O)CC[C@]4(C)[C@H]3CC[C@]12C)[C@H](O)C(F)(F)F` [Compound 97, (3S,5R,8R,9S,10S,13S,14S,17R)-3,10,13-trimethyl-17-((2S,3S)-4,4,4-trifluoro-3-hydroxybutan-2-yl)hexadecahydro-1H-cyclopenta[a]phenanthren-3-ol], the activation at 1 µM was -40 to -10%.

(Values after patent US11613556B2, “Oxysterols and methods of use thereof” (Sage Therapeutics, Inc., priority 2016, dated 2023).)
